“Also recorded” adds a separate entry of the source.
Assays:
[1] = biological target: T1, MAO-A (Homo sapiens, UniProt P21397); test: MAO-Glo luminescent assay, MAO-A inhibition; assay type: biochemical; details: for inhibiting the enzymatic activity of MAO-A (result in words): compared among isomyosmine, myosmine, anatabine, anabasine, nornicotine, clorgyline positive control, FIG. 3
T1 construct: purchased
T1 sequence (P21397 1-527): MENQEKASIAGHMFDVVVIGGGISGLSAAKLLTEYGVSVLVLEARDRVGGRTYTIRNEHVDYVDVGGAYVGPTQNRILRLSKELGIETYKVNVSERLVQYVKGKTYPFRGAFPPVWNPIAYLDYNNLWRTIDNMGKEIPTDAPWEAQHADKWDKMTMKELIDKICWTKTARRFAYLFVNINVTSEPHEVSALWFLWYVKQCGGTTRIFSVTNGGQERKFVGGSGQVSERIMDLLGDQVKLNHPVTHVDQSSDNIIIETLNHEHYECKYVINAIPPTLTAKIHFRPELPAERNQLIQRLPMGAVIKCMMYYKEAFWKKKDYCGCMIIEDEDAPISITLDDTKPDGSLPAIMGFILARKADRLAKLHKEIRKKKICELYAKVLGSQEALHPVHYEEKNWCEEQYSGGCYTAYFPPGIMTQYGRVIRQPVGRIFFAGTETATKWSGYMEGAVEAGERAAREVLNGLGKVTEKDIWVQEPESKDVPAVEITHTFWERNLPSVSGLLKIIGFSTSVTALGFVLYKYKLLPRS
Excerpt: (§1) This example describes experiments for determining monoamine oxidase (MAO) inhibition for isomyosmine and other alkaloids. MAOs are enzymes located on the outer membrane of mitochondria and are involved in the catabolism of monoamine neurotransmitters. There are two well-characterized isoenzymes: MAO-A, which predominantly catabolizes serotonin and norepinephrine, and MAO-B, which preferentially catabolizes benzylamine and phenylethylamine. Dopamine and tyramine are metabolized by both isoforms.
(§2) To detect the activity of MAO, a luminescent method (MAO-Glo Assay kit, from Promega, Cat # V1401) was used. In this method, a MAO substrate (a derivative of beetle luciferin provided in the kit) is mixed with the compound to be tested (in this case, myosmine and control compounds). Then, the MAO enzymes (either A or B, purchased separately) are added to the mixture and incubated with the reaction for 1 hour at room temperature. The MAO enzymes, if not inhibited by the test compound, will convert the substrate into methyl ester luciferin. Finally, a luciferin detection reagent (provided by the kit) is added (20 minutes at room temperature) to stop the MAO reaction and convert methyl ester luciferin into D-luciferin. D-luciferin reacts with luciferase to produce a luminescent signal, which is directly proportional to the D-luciferin concentration and thus the MAO activity: the greater the amount of light produced the higher the activity of MAO. The luminescent signal is measured and recorded using a luminometer.
The following materials were obtained from Toronto Research Chemicals, North York, ON: isomyosmine, catalog # 1821350; myosmine, catalog # M835000; anabasine, catalog # A637175; and nornicotine, catalog # N756995. Anatabine was obtained from Emerson Resources, Norristown, PA.

[2] = biological target: T2, MAO-B (Homo sapiens, UniProt P27338); test: MAO-Glo luminescent assay, MAO-B inhibition; assay type: biochemical; details: compared among isomyosmine, myosmine, anatabine, anabasine, nornicotine; FIG. 4
T2 construct: purchased
T2 sequence (P27338 1-520): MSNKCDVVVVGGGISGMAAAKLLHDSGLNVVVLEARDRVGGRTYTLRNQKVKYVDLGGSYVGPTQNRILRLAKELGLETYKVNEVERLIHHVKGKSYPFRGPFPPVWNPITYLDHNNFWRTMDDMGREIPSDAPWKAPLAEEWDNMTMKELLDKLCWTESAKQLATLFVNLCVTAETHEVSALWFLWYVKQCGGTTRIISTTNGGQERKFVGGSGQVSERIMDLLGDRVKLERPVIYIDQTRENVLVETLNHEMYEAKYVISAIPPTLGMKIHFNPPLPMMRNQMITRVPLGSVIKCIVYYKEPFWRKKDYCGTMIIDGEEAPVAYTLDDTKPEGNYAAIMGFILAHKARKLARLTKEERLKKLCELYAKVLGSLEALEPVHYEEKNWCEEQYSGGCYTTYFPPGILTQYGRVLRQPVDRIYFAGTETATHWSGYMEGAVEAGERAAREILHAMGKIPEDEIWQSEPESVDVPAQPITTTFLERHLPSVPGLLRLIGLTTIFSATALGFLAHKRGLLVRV
Excerpt: as §1
as §2, with “D-luciferin reacts with luciferase to produce a luminescent signal, which is directly proportional to the D-luciferin concentration and thus the MAO activity: the greater the amount of light produced the higher the activity of MAO.” left out, “luminometer. […]” for “luminometer.”

[3] = Blood oxygen saturation (SpO2) by pulse oximetry in individuals; assay type: in vivo, human; details: seven individuals, one hour after single dose 50-100 mg
Excerpt: This example illustrates the effect of isomyosmine on normal blood oxygen saturation levels (SpO2). SpO2 refers to peripheral capillary oxygen saturation, an estimate of the amount of oxygen in the blood. More specifically, it is the percentage of oxygenated hemoglobin (hemoglobin containing oxygen) compared to the total amount of hemoglobin in the blood (oxygenated and non-oxygenated hemoglobin). SpO2 can be measured by pulse oximetry, an indirect, non-invasive method. It works by emitting and then absorbing a light wave passing through blood vessels (or capillaries) in the fingertip. A variation of the light wave passing through the finger will give the value of the SpO2 measurement because the degree of oxygen saturation causes variations in the blood's color.

[4] = Topical administration for wound healing; assay type: in vivo; details: e.g. surgical incisions
Excerpt: A method, not falling within the scope of the claimed subject-matter, of treating a wound is also described herein which comprises administering to an individual in need thereof a pharmaceutical composition containing a therapeutically effective amount of isomyosmine or a pharmaceutically acceptable salt thereof.

In the case of `C#CCN(C)CCCOc1ccc(Cl)cc1Cl` [clorgyline, reference compound], the “inhibiting the enzymatic activity of MAO-A (result in words)” value (from here on “inhibiting the enzymatic activity”) [1] is reported as “greatly shifted leftward”.

With `C1=NC(c2cccnc2)CC1` (stereo not shown) [isomyosmine, 3-(3,4-dihydro-2H-pyrrol-2-yl)-pyridine] the “inhibiting the activity of MAO-B (result in words)” value [2] was “most potent among the five alkaloids tested; also recorded: potent inhibitor”, the “inhibiting the enzymatic activity” value [1] was “most potent of the five” and the “inhibiting the enzymatic activity” value ([1]; listed as Isomyosmine) was “potent inhibitor”. The inhibition at 2000 µM ([1]; read-out: inhibition of MAO-A) was ~50%, the “blood oxygenation (result in words)” value [3] was “significant increase in blood oxygenation” and the “wound healing (result in words)” value [4] was “dramatically improve healing”.

Reference: patent EP3687536B1, “METHODS OF TREATING HEMOCHROMATOSIS AND RESPIRATORY DISORDERS” (MYMD PHARMACEUTICALS, INC., priority 2017, dated 2019)
